Laboratory results taken from article PMC9459017, “Pharmacokinetic and pharmacodynamic similarity evaluation between an insulin glargine biosimilar product and Lantus® in healthy subjects: Pharmacokinetic parameters of both parent insulin glargine and M1 were used as endpoints” (Frontiers in Pharmacology, 2022).

How the values were obtained:
[1] = design: species or system human; details: in vivo, sc; for Tmax of the parent insulin glargine: human
Description: This PK/PD comparative study was a randomized, double-blind, single-dose, two-treatment, four-period, replicate crossover, euglycemic clamp study. Subjects were randomly assigned to one of two dosing sequences and received 0.4 U/kg reference drug on two occasions and 0.4 U/kg test drug on two occasions. The dosing nurses were not blind to the treatment allocation, whereas the subjects and the clamping operators (who adjusted the glucose infusion rate) were blinded. Subjects were admitted to the clinical research unit on the night before each period. On day 1 of each period, all doses of test and reference drug were administered by subcutaneous injection, and then, subjects underwent a euglycemic clamp procedure until 24 h post-dose. There was a washout period of 10–14 days between study periods. The test drug, manufactured by Wanbang Biopharmaceuticals, was supplied as a 100 U/ml solution in 3 ml cartridges. The reference drug was procured commercially as cartridges. The test drug or reference drug was administrated by subcutaneous injection using a pen about 5 cm from the left or right side of the umbilicus, as a 0.4 U/kg dose. In each period, serial blood samples for the quantification of insulin glargine, its metabolites (M1 and M2), and C-peptide were collected at 30 min prior to dosing and 0, 1, 3, 5, 6, 7, 8, 9, 10, 11, 12, 13, 14, 16, 18, 21, and 24 h after dose using vacuum tubes with an EDTA anticoagulant. Concentrations of insulin glargine and its metabolites (M1 and M2) in plasma were simultaneously quantified by an ultra-high-performance liquid chromatography tandem mass spectrometry (UHPLC-MS/MS) method developed and fully validated before the clinical sample analysis. […] Pharmacokinetic parameters were calculated with WinNonlin Version 8.2 (Pharsight Corporation, Mountain View, California, United States) using a non-compartmental analysis method. […] Time to reach Cmax (Tmax) was also calculated. […]

[2] = Matrix stability of insulin glargine in whole blood and plasma; type: in vitro ADME; details: human whole blood and plasma; addressed by strict temperature control and EDTA anticoagulant during sample collection and pre-treatment
Description: The bioanalytical method applied in this study was with a relatively higher sensitivity of 75.0 pg/ml for the parent insulin glargine ([Bhatia et al., 2018]; [Crutchlow et al., 2018]). The instability of the insulin glargine in whole blood and plasma was addressed by strict temperature control and selection of EDTA anticoagulant during sample collection and pre-treatment. […] After subcutaneous injection, the concentrations of parent insulin glargine increased to a relatively high level within 3 h, and then, a relatively flat concentration–time profile lasting for at least 12 h post-dose was observed, which implied a prolonged absorption of insulin glargine.

[3] = acidic pH; precipitates in the subcutaneous tissue after injection to form a depot; ref Levien et al., 2002; cited from earlier work
Description: Then, the drug is slowly released from the depot. […] These observed phenomena are consistent with those of a previous study ([Bolli et al., 2012]). Based on the comparison ...

healthy volunteers [4] = test: 24 h euglycemic clamp, glucose infusion rate (pharmacodynamics); type: in vivo, human; details: single 0.4 U/kg s.c., N = 38; for AUCGIR(0–24 h), geometric mean / Time to GIRmax / AUCGIR(0–12 h), geometric mean / AUCGIR(12–24 h), geometric mean / GIRmax, geometric mean: healthy volunteers; for AUCGIR(0–24 h), geometric mean: 24 h euglycemic clamp 0.3 mmol/L below fasting glucose; for AUCGIR(0–24 h), geometric mean / AUCGIR(0–12 h), geometric mean / AUCGIR(12–24 h), geometric mean / GIRmax, geometric mean: raw GIR not smoothed; for Time to GIRmax / AUCGIR(0–12 h), geometric mean / AUCGIR(12–24 h), geometric mean / GIRmax, geometric mean: 24 h euglycemic clamp; for Time to GIRmax: median (range); for AUCGIR(0–12 h), intra-subject variability / AUCGIR(0–24 h), intra-subject variability / AUCGIR(12–24 h), intra-subject variability / GIRmax, intra-subject variability: replicate crossover
Description: This PK/PD comparative study was a randomized, double-blind, single-dose, two-treatment, four-period, replicate crossover, euglycemic clamp study. Subjects were randomly assigned to one of two dosing sequences and received 0.4 U/kg reference drug on two occasions and 0.4 U/kg test drug on two occasions. The dosing nurses were not blind to the treatment allocation, whereas the subjects and the clamping operators (who adjusted the glucose infusion rate) were blinded. Subjects were admitted to the clinical research unit on the night before each period. On day 1 of each period, all doses of test and reference drug were administered by subcutaneous injection, and then, subjects underwent a euglycemic clamp procedure until 24 h post-dose. There was a washout period of 10–14 days between study periods. For each subject, the 24 h euglycemic clamp procedure aimed to maintain the clamp value at 0.3 mmol/L below the subject’s mean fasting glucose level in each period. Each subject began fasting from 20:00 on the day prior to dosing in each period and continued fasting during the clamp study. Body weight and vital signs were measured after the bladder was emptied, and the clamp study was performed after resting for at least 30 min. One upper limb was cannulated for the infusion of glucose (20% dextrose solution in water). The contralateral upper limb was cannulated for PK blood sample collection and blood glucose concentration measurement. Blood glucose level was measured by using an automatic blood glucose analyzer every 20 min from 0 to 3.0 h, every 10 min from 3.0 to 12.0 h, every 15 min from 12.0 to 16.0 h, every 30 min from 16.0 to 21.0 h, and every 15 min from 21.0 to 24.0 h. After each glucose measurement, the glucose infusion rate (GIR) was manually adjusted by the operator based on the experience of the change rate of blood glucose to maintain the blood glucose concentration within ±10% of the clamp target. During the entire procedure, subjects should stay awake, decumbent, or semi-decumbent as much as possible and relieve themselves in time with the help of medical staff. PD parameters were calculated with WinNonlin Version 8.2 using the trapezoidal rule. Raw GIR profiles were not smoothed before calculation of PD parameters. Area under the glucose infusion rate–time curve (AUCGIR(0–24 h)) and peak of glucose infusion rate (GIRmax) were measured as primary endpoints. Partial area under the glucose infusion rate–time curve (AUCGIR(0–12 h) and AUCGIR(12–24 h)) was the secondary PD parameter. Another meaningful PD endpoint was time to GIRmax. The primary and secondary PD parameters, AUCGIR(0–24 h), GIRmax, AUCGIR(0–12 h), and AUCGIR(12–24 h), were log transformed prior to analysis. The same linear mixed-effects model as PK comparison was used for the PD comparison. For each PD parameter, the difference in geometric means along with the 90% CIs was back transformed to produce the ratio of geometric means and the CI comparing the test drug to reference drug. PD similarity was to be concluded if the […] for both primary and secondary PD parameters were contained within the interval of 80.00%–125.00%. Intra-subject and inter-subject variability were reported for each primary and secondary PD parameters.

endogenous insulin = test: Plasma C-peptide reduction during clamp (suppression of endogenous insulin); type: in vivo, human; details: single 0.4 U/kg s.c., healthy volunteers, plasma C-peptide by ELISA during 24 h clamp, mean ± SD
Method: In each period, serial blood samples for the quantification of insulin glargine, its metabolites (M1 and M2), and C-peptide were collected at 30 min prior to dosing and 0, 1, 3, 5, 6, 7, 8, 9, 10, 11, 12, 13, 14, 16, 18, 21, and 24 h after dose using vacuum tubes with an EDTA anticoagulant.
C-peptide in plasma was quantified by a fully validated enzyme-linked immunosorbent assay (ELISA) method, of which the calibration range was 28.9–925 pmol/L.
C-peptide concentration was measured in parallel to insulin concentrations throughout the experiment to compare the extent and consistency of suppression of endogenous insulin between the two drugs.
The quality of the performance of the clamp study was estimated from two aspects. On one hand, the blood glucose level during the entire clamping process was evaluated by calculating the mean difference between the blood glucose concentration and the clamp target, mean square deviation, and coefficient of variation of the blood glucose concentrations. On the other hand, the plasma C-peptide concentration profiles and the ratio of C-peptide reduction were evaluated.

healthy subjects = test: Safety assessment in healthy subjects; details: single 0.4 U/kg s.c. doses, healthy male subjects
Method: Prior to dose and at various time points post-dose and post-study, assessments of safety and tolerability were conducted by monitoring adverse events (AEs), vital signs, physical examinations, laboratory tests (hematology, blood biochemistry, urinalysis, and coagulation function), and 12-lead ECG.

healthy volunteers [5] = test: 24 h euglycemic clamp, glucose infusion rate (pharmacodynamics); type: in vivo, human; details: single 0.4 U/kg s.c., linear mixed-effects model, N = 38

Row | Substance | Duration of relatively flat concentration–time profile post-dose [1] | Stability in whole blood and plasma [2] | Solubility [3] | Tmax of the parent insulin glargine [1] | AUCGIR(0–24 h), geometric mean (healthy volunteers [4]) | Time to GIRmax (healthy volunteers [4]) | AUCGIR(0–12 h), geometric mean (healthy volunteers [4]) | AUCGIR(12–24 h), geometric mean (healthy volunteers [4]) | GIRmax, geometric mean (healthy volunteers [4]) | AUCGIR(0–12 h), intra-subject variability (healthy volunteers [4]) | AUCGIR(0–24 h), intra-subject variability (healthy volunteers [4]) | AUCGIR(12–24 h), intra-subject variability (healthy volunteers [4]) | GIRmax, intra-subject variability (healthy volunteers [4]) | Ratio of C-peptide reduction (endogenous insulin) | Clinically significant changes in vital signs, physical examinations, laboratory tests or 12-lead ECG (healthy subjects) | Safety profiles with regard to AEs (healthy subjects) | AUCGIR(0–12 h), ratio of geometric means test/reference (healthy volunteers [5]) | AUCGIR(0–24 h), ratio of geometric means test/reference (healthy volunteers [5]) | AUCGIR(12–24 h), ratio of geometric means test/reference (healthy volunteers [5]) | GIRmax, ratio of geometric means test/reference (healthy volunteers [5])
1 | insulin glargine | at least 12 h | instability | soluble at an acidic pH |  |  |  |  |  |  |  |  |  |  |  |  |  |  |  |  | 
2 | Lantus [Reference drug] |  |  |  | 3 (1,16) h | 34.4 mg/kg/min·h | 11.8 (4, 19.0) | 13.45 mg/kg/min·h | 21.19 mg/kg/min·h | 2.54 mg/kg/min | 39.0% | 28.3% | 20.2% | 25.5% | 57.5% ± 14.4 | no changes | comparable |  |  |  | 
3 | recombinant insulin glargine [Test drug] |  |  |  | 8 (1,16) h | 36.3 mg/kg/min·h | 12.3 (3.85, 21.5) | 13.52 mg/kg/min·h | 22.45 mg/kg/min·h | 2.66 mg/kg/min | 70.7% | 36.4% | 27.3% | 26.5% | 56.5% ± 14.1 |  |  | 100.52% | 105.41% | 105.91% | 105.00%
